Source: ChEMBL document CHEMBL1201862, “PubChem BioAssay data set” (2004)
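Dose response: 5 concentrations. Exposure: 48 h. Format: 96-well plates. Endpoint: linear interpolation; highest concentration if not reached. Abbreviation: GI50, concentration required for 50% inhibition of growth.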 Activity calls are given as the source filed them. No stated cut-off is given here; in the data, active = GI50 up to about 1.1 µM and inactive = higher. *1 amine or outer side, *2 acyl side, *3 side chain or, on linkers, in order; H or OH if unused. Where a SMILES comes first, the peptide text is derived from it. Bridges are numbered along the chain shown (N, C = ends). Roman numbers before positions name the chains, in order. [ ]: non-standard residue; d: D form. Actinocin(9to1) = Cc1c2oc3c(C)ccc(C(=O)[*:1])c3nc-2c(C(=O)[*:2])c(N)c1=O; Hyp = O=C(O)[CH]1C[CH](O)CN1; NMeV = CN[CH](C(=O)O)C(C)C; Sar = CNCC(=O)O

How the values were obtained:
Assay in all cases: NCI-60 cell line screen, 48 h
[1] = tested on: SNB-75
[2] = tested on: RXF 393
[3] = tested on: HCT-15
[4] = tested on: Malme-3M
[5] = tested on: Hs-578T
[6] = tested on: OVCAR-4
[7] = tested on: OVCAR-5
[8] = tested on: ACHN
[9] = tested on: SW-620
[10] = tested on: U-251
[11] = tested on: NCI-H522
[12] = tested on: DU-145
[13] = tested on: SNB-19
[14] = tested on: SK-OV-3
[15] = tested on: CCRF-CEM
[16] = tested on: IGROV-1
[17] = tested on: MOLT-4
[18] = tested on: MCF7
[19] = tested on: SN12C
[20] = tested on: NCI-H460
[21] = tested on: UACC-62
[22] = tested on: SF-295
[23] = tested on: KM12
[24] = tested on: LOX IMVI
[25] = tested on: A549
[26] = tested on: SF-539
[27] = tested on: A498
[28] = tested on: HCC 2998
[29] = tested on: SK-MEL-5
[30] = tested on: HL-60
[31] = tested on: SF-268
[32] = tested on: MDA-MB-435
[33] = tested on: CAKI-1
[34] = tested on: MDA-MB-231
[35] = tested on: HOP-62
[36] = tested on: SK-MEL-28
[37] = tested on: MDA-N
[38] = tested on: NCI-H226
[39] = tested on: T47D
[40] = tested on: OVCAR-3
[41] = tested on: PC-3
[42] = tested on: HCT-116
[43] = tested on: HT-29
[44] = tested on: M14
[45] = tested on: SK-MEL-2
[46] = tested on: RPMI-8226
[47] = tested on: SR
[48] = tested on: OVCAR-8
[49] = tested on: K562
[50] = tested on: EKVX
[51] = tested on: NCI-H23
[52] = tested on: UO-31
[53] = tested on: NCI/ADR-RES
[54] = tested on: TK-10
[55] = tested on: COLO 205
[56] = tested on: BT-549
[57] = tested on: UACC-257
[58] = tested on: HOP-92
[59] = tested on: 786-0

Measured: GI50

COCCCNc1nc(N)c(C#N)c(C#N)c1C#N
inactive: [1] > 10 µM | [2] > 10 µM | [4] > 10 µM | [5] > 10 µM | [6] > 10 µM | [7] > 10 µM | [8] > 10 µM | [9] > 10 µM | [10] > 10 µM | [11] > 10 µM | [12] > 10 µM | [13] > 10 µM | [14] > 10 µM | [15] 2.48 µM | [16] > 10 µM | [17] > 10 µM | [18] > 10 µM | [19] > 10 µM | [20] > 10 µM | [21] > 10 µM | [22] > 10 µM | [23] > 10 µM | [24] > 10 µM | [25] > 10 µM | [26] > 10 µM | [27] > 10 µM | [28] > 10 µM | [29] > 10 µM | [30] 4.47 µM | [31] > 10 µM | [32] > 10 µM | [33] > 10 µM | [34] > 10 µM | [35] > 10 µM | [36] > 10 µM | [37] > 10 µM | [38] > 10 µM | [39] > 10 µM | [40] > 10 µM | [41] > 10 µM | [42] > 10 µM | [43] > 10 µM | [44] > 10 µM | [45] > 10 µM | [46] > 10 µM | [47] > 10 µM | [48] > 10 µM | [49] 2.72 µM | [50] > 10 µM | [51] > 10 µM | [52] > 10 µM | [53] > 10 µM | [54] > 10 µM | [55] > 10 µM
> 10 µM: [3]

CSc1n[nH]c2c1c(C)nn2-c1ccccc1
inactive: [2] > 100 µM | [56] > 100 µM | [6] > 100 µM | [7] > 100 µM | [9] > 100 µM | [10] > 100 µM | [13] > 100 µM | [14] > 100 µM | [16] > 100 µM | [17] > 100 µM | [18] > 100 µM | [20] > 100 µM | [21] > 100 µM | [57] > 100 µM | [25] > 100 µM | [26] > 100 µM | [28] > 100 µM | [29] > 100 µM | [30] 71.3 µM | [32] > 100 µM | [36] > 100 µM | [38] > 100 µM | [40] > 100 µM | [41] > 100 µM | [43] > 100 µM | [44] > 100 µM | [58] > 100 µM | [45] > 100 µM | [46] > 100 µM | [47] > 100 µM | [49] > 100 µM | [50] > 100 µM | [51] > 100 µM | [52] > 100 µM | [54] > 100 µM
> 100 µM: [3]

Cc1c2oc3c(C)ccc(C(=O)NC4C(=O)NC(C(C)C)C(=O)N5CC(O)CC5C(=O)N(C)CC(=O)N(C)C(C(C)C)C(=O)OC4C)c3nc-2c(C(=O)NC2C(=O)NC(C(C)C)C(=O)N3CC(O)CC3C(=O)N(C)CC(=O)N(C)C(C(C)C)C(=O)OC2C)c(N)c1=O (stereo not drawn) (I: TV[Hyp][Sar][NMeV] / II: TV[Hyp][Sar][NMeV]; ester I:1-I:C, II:1-II:C; linker I:N-II:N via Actinocin(9to1); configuration not given here)
> 1 µM: [3]
active: [1] > 1 µM | [2] > 1 µM | [4] > 1 µM | [5] > 1 µM | [6] > 1 µM | [7] > 1 µM | [59] > 1 µM | [8] > 1 µM | [9] > 1 µM | [10] > 1 µM | [11] 0.0522 µM | [12] > 1 µM | [13] > 1 µM | [14] > 1 µM | [15] > 1 µM | [16] > 1 µM | [17] > 1 µM | [18] > 1 µM | [19] > 1 µM | [20] > 1 µM | [57] > 1 µM | [22] > 1 µM | [23] > 1 µM | [24] > 1 µM | [25] > 1 µM | [26] > 1 µM | [27] > 1 µM | [28] > 1 µM | [29] > 1 µM | [30] > 1 µM | [31] > 1 µM | [32] > 1 µM | [33] > 1 µM | [34] > 1 µM | [35] > 1 µM | [36] > 1 µM | [37] > 1 µM | [38] > 1 µM | [39] > 1 µM | [40] > 1 µM | [41] > 1 µM | [42] > 1 µM | [43] > 1 µM | [44] > 1 µM | [58] > 1 µM | [45] > 1 µM | [46] > 1 µM | [47] 0.748 µM | [48] > 1 µM | [49] > 1 µM | [50] > 1 µM | [51] > 1 µM | [52] > 1 µM | [53] > 1 µM | [54] > 1 µM | [55] > 1 µM
